Assay results taken from patent US9018197B2, “Tetradecahydro-1H-cyclopenta[a]phenanthrene compounds, compositions, and related methods of use” (Suzhou Neupharma Co. Ltd., priority 2010, dated 2015).
pIC50: −log10 of the molar value.

Tests used:
Bcap-37 cells = assay: Inhibition of cell growth in tumor cells, MTT assay, Bcap-37 cells; format: cell-based; conditions: Homo sapiens, Bcap37, 72 h compound exposure
Description: (§1) Inhibition of cell growth by compounds was measured using MTT assay (Mosmann, T., Journal of Immunological Methods, 1983, 65, 55-63). Tumor cell lines were purchased from ATCC (American Type Culture Collection, Manassas, Va.). All cell lines were maintained in RPMI 1640 (Hyclone) supplemented with 10% fetal bovine serum (FBS, Hyclone), glutamine (2 mM, Hyclone), and antibiotics (penicillin 100 U/mL and streptomycin 50 μg/mL) at 37° C. in a humidified atmosphere of 5% CO2 in air. Taxol (positive control, Sigma) and compounds were dissolved in DMSO (Sigma), and the final concentration of DMSO in the medium was 1%. Tumor cells were plated in 96-well plates at densities from 4000 cells/well of a 96-well plate and allowed to adhere/grow for 24 h. They were then treated with various concentrations of drug for 72 h. 3-(4,5-Dimethylthiazol-2-yl)-2,5-diphenyltetrazolium bromide (MTT, Sigma) was used to determine the number of viable cells at the time of compound addition and the number of cells remaining after 72 h compound exposure. The number of cells remaining after 72 h was compared to the number of viable cells at the time of compound addition by measuring the absorbance at 570 nm, allowing for the calculation of growth inhibition.
(§2) All concentrations of compounds were tested in triplicate and controls were averaged over 4 wells. IC50 was calculated by plotting the concentration of compound vs the percentage of inhibition in treated wells using GraphPad Prism 5.

A549 cells = assay: Inhibition of cell growth in tumor cells, MTT assay, A549 cells; format: cell-based; conditions: Homo sapiens, 72 h compound exposure
Description: as §1, §2

SMILES	pIC50 (Bcap-37 cells)	pIC50 (A549 cells)
C[C@]12CC[C@H](OC(=O)NCCN3CCCC3)C[C@H]1CC[C@H]1C3=CC[C@H](c4ccc(=O)oc4)[C@@]3(C)CC[C@@H]12 [(3S,5R,8R,9S,10S,13R,17S)-10,13-dimethyl-17-(2-oxo-2H-pyran-5-yl)-2,3,4,5,6,7,8,9,10,11,12,13,16,17-tetradecahydro-1H-cyclopenta[a]phenanthren-3-yl 2-(pyrrolidin-1-yl)ethylcarbamate]	6.77	6.66
C[C@]12CC[C@H](OC(=O)NCCN3CCOCC3)C[C@H]1CC[C@H]1C3=CC[C@H](c4ccc(=O)oc4)[C@@]3(C)CC[C@@H]12 [(3S,5R,8R,9S,10S,13R,17S)-10,13-dimethyl-17-(2-oxo-2H-pyran-5-yl)-2,3,4,5,6,7,8,9,10,11,12,13,16,17-tetradecahydro-1H-cyclopenta[a]phenanthren-3-yl 2-morpholinoethylcarbamate]	6.72	7.26
C[C@]12CC[C@H](OC(=O)N3CCNCC3)C[C@H]1CC[C@H]1C3=CC[C@H](c4ccc(=O)oc4)[C@@]3(C)CC[C@@H]12 [(3S,5R,8R,9S,10S,13R,17S)-10,13-dimethyl-17-(2-oxo-2H-pyran-5-yl)-2,3,4,5,6,7,8,9,10,11,12,13,16,17-tetradecahydro-1H-cyclopenta[a]phenanthren-3-ylpiperazine-1-carboxylate]	6.86	7.04
CC(C)[C@@H](N)C(=O)O[C@H]1CC[C@@]2(C)[C@H](CC[C@H]3C4=CC[C@H](c5ccc(=O)oc5)[C@@]4(C)CC[C@@H]32)C1 [(R)-((3S,5R,8R,9S,10S,13R,17S)-10,13-dimethyl-17-(2-oxo-2H-pyran-5-yl)-2,3,4,5,6,7,8,9,10,11,12,13,16,17-tetradecahydro-1H-cyclopenta[a]phenanthren-3-yl) 2-amino-3-methylbutanoate]	6.81	6.77
CC(C)C[C@@H](N)C(=O)O[C@H]1CC[C@@]2(C)[C@H](CC[C@H]3C4=CC[C@H](c5ccc(=O)oc5)[C@@]4(C)CC[C@@H]32)C1 [(R)-((3S,5R,8R,9S,10S,13R,17S)-10,13-dimethyl-17-(2-oxo-2H-pyran-5-yl)-2,3,4,5,6,7,8,9,10,11,12,13,16,17-tetradecahydro-1H-cyclopenta[a]phenanthren-3-yl) 2-amino-4-methylpentanoate]	6.43	
C[C@@H](N)C(=O)O[C@H]1CC[C@@]2(C)[C@H](CC[C@H]3C4=CC[C@H](c5ccc(=O)oc5)[C@@]4(C)CC[C@@H]32)C1 [(R)-((3S,5R,8R,9S,10S,13R,17S)-10,13-dimethyl-17-(2-oxo-2H-pyran-5-yl)-2,3,4,5,6,7,8,9,10,11,12,13,16,17-tetradecahydro-1H-cyclopenta[a]phenanthren-3-yl) 2-aminopropanoate]	6.79	6.97
CC(C)[C@H](N)C(=O)O[C@H]1CC[C@@]2(C)[C@H](CC[C@H]3C4=CC[C@H](c5ccc(=O)oc5)[C@@]4(C)CC[C@@H]32)C1 [(S)-((3S,5R,8R,9S,10S,13R,17S)-10,13-dimethyl-17-(2-oxo-2H-pyran-5-yl)-2,3,4,5,6,7,8,9,10,11,12,13,16,17-tetradecahydro-1H-cyclopenta[a]phenanthren-3-yl) 2-amino-3-methylbutanoate]	6.35	
CC(C)C[C@H](N)C(=O)O[C@H]1CC[C@@]2(C)[C@H](CC[C@H]3C4=CC[C@H](c5ccc(=O)oc5)[C@@]4(C)CC[C@@H]32)C1 [(S)-((3S,5R,8R,9S,10S,13R,17S)-10,13-dimethyl-17-(2-oxo-2H-pyran-5-yl)-2,3,4,5,6,7,8,9,10,11,12,13,16,17-tetradecahydro-1H-cyclopenta[a]phenanthren-3-yl) 2-amino-4-methylpentanoate]		6.64
C[C@H](N)C(=O)O[C@H]1CC[C@@]2(C)[C@H](CC[C@H]3C4=CC[C@H](c5ccc(=O)oc5)[C@@]4(C)CC[C@@H]32)C1 [(S)-((3S,5R,8R,9S,10S,13R,17S)-10,13-dimethyl-17-(2-oxo-2H-pyran-5-yl)-2,3,4,5,6,7,8,9,10,11,12,13,16,17-tetradecahydro-1H-cyclopenta[a]phenanthren-3-yl) 2-aminopropanoate]		6.95
